Measured values taken from PMC6986443, “T‐495, a novel low cooperative M1 receptor positive allosteric modulator, improves memory deficits associated with cholinergic dysfunction and is characterized by low gastrointestinal side effect risk” (Pharmacology Research & Perspectives, 2020).

Experiments:
selectivity panel = conditions: cited from earlier work
patients with AD = tested on: patients with AD; parameters: method as in PMID 29955661; conditions: cited from earlier work
[1] = tested on: CaMKIIα‐tTA/A53T α‐syn dTg mice; experiment: Contextual fear conditioning (CFC) test; format: in vivo, mouse
Method: The CFC test was performed in a clear conditioning chamber (33 cm wide, 25 cm long, and 28 cm high; O’Hara & Co., Ltd.) surrounded by a sound‐attenuating box. The illumination in the chamber was maintained at 100 lux. Conditioned stimulus (CS) and unconditioned stimulus (US) were automatically delivered by a tone generator and a shock generator (O’Hara & Co., Ltd.), respectively. On Day 1 (habituation phase), vehicle was orally administered, and mice were placed in the conditioning chamber. They were allowed to freely explore for 120 seconds and then returned to their home cages. […] Mice were placed in the chamber for 120 seconds before the onset of a tone (CS, 60 dB for 30 s). The last 2 seconds of the CS were paired with a foot shock (US, 0.25 mA), and mice were removed and returned to their home cages 180 seconds after the US. […] Mice were again placed in the same chamber for 180 seconds. Freezing behavior was analyzed using ImageJ FZ4 (O’Hara & Co., Ltd.) during the conditioning and retention phases.

[2] = biological target: T1, Nitric oxide synthase, inducible (iNOS) (Mus musculus, UniProt P29477); experiment: Selectivity panel; format: biochemical
T1 construct: purchased Eurofins Panlabs Taiwan Ltd
Description: (§1) The selectivity of T‐495 at 10 μmol/L against a panel of 106 targets, including receptors, enzymes, ion channels, and transporters, was characterized (Eurofins Panlabs Taiwan Ltd., Taipei, Taiwan).

[3] = biological target: T2, Metalloproteinase, Neutral Endopeptidase (Homo sapiens, UniProt P08473); experiment: Selectivity panel; format: biochemical
T2 construct: purchased Eurofins Panlabs Taiwan Ltd
T2 sequence (P08473 whole entry): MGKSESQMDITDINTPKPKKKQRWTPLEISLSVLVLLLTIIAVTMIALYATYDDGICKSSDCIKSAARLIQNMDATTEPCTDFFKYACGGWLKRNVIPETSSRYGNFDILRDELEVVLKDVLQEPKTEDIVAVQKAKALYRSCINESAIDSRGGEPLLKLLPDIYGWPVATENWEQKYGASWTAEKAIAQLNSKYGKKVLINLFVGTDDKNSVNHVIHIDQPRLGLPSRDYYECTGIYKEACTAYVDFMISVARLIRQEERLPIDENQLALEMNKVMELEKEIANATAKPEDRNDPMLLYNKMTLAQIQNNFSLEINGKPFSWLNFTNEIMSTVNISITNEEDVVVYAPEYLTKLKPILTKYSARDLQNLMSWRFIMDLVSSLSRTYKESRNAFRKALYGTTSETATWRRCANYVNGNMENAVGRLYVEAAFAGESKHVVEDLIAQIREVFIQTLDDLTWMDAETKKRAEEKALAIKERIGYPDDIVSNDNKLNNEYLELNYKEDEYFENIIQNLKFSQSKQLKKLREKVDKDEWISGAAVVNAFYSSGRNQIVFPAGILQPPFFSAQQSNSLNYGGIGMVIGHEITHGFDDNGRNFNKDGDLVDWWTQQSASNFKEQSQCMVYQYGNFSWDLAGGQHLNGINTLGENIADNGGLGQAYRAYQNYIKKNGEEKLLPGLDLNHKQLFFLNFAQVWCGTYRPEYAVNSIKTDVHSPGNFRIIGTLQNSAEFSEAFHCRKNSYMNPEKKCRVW
Description: as §1

Protein kinase A (PKA) = experiment: Selectivity panel; format: biochemical
Description: as §1

[4] = tested on: CaMKIIα‐tTA/A53T α‐syn dTg mice; experiment: Y‐maze task; format: in vivo, mouse; conditions: 3 mg/kg p.o.
Method: The Y‐maze was fabricated from gray plastic and consisted of three arms (40 cm long, 12 cm high, 3 cm wide at the bottom, and 10 cm wide at the top) with an angle of 120°. Visual cues were placed outside each arm, and the apparatus was illuminated at 10 lux. […] An arm entry was defined as all four paws of the mouse being in the arm, and the sequence of arm entries was monitored with a video camera and counted manually. An alternation was defined as successive entries into the three arms on overlapping triplet sets.36 The percentage of alternation was calculated as the ratio of actual to possible alternations (total number of arm entries minus 2) multiplied by 100.

human M1R = biological target: T3, human M1R (Homo sapiens, UniProt P11229); experiment: [3H]‐NMS binding assay; parameters: expressed in transfected cells
T3 sequence (P11229 1-460): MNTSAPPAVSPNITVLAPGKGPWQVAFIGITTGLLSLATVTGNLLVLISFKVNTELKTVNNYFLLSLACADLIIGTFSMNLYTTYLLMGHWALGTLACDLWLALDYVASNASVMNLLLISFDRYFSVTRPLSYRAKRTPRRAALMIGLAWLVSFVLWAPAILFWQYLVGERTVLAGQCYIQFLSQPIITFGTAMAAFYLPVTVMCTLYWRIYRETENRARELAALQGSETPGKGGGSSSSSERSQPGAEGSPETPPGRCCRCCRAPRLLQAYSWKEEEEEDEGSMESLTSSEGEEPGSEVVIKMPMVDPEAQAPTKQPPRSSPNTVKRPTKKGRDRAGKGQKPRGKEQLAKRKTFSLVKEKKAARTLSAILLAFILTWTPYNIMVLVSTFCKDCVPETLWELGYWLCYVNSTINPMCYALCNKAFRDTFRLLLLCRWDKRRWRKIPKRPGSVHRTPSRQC
Method: Cell membranes from FreeStyle 293 cells transiently expressing human M1R were incubated with T‐495 (0.01‐30 μmol/L) and 0.2 nmol/L [^3H]‐NMS (PerkinElmer) in assay buffer as described above. After 2 hours at room temperature, the binding was terminated by filtration through GF/C filter plates using a cell harvester and washed five times with 300 μl of 50 mmol/L Tris‐HCl. GF/C plates were dried at 42°C and then 25 μl of microscint 0 was added. Radioactivity was measured by Topcount.

## Cc1ccc(Cc2cc3c(=O)n([C@H]4CCCC[C@@H]4O)cnc3c3ccccc23)cn1 [MK‐7622, 3‐((1S,2S)‐2‐hydroxycyclohexyl)‐6‐((6‐methylpyridin‐3‐yl)methyl)benzo[h]quinazolin‐4(3H)‐one, reference compound]
Selectivity panel
  selectivity in a selectivity panel: exhibited inhibitory activities only against 5‐lipoxygenase and phosphodiesterase 4
Patients with AD
  cognition as adjunctive therapy with AChEIs: did not improve cognition
Patients with AD; estimated effective dose
  patients affected by diarrhea: 15%

## Cc1c(Cc2ccc(Cl)nc2)cc2c(c1Cl)OCN([C@H]1CCC[C@@H]1O)C2=O [T‐495, 8‐chloro‐6‐((6‐chloropyridin‐3‐yl)methyl)‐3‐((1S,2S)‐2‐hydroxycyclopentyl)‐7‐methyl‐2,3‐dihydro‐4H‐1,3‐benzoxazin‐4‐one]
[1]; 3 mg/kg p.o.
  level of freezing behavior during the conditioning phase: did not change
[1]; 3 mg/kg p.o. 1 h before conditioning and retention
  reduced level of freezing behavior during the retention phase: significantly reversed
[2]
  inhibition at 10 µM: 0%
[3]
  inhibition at 10 µM: 10%
Protein kinase A (PKA)
  % inhibition at 10 μM: -4%
[4]
  reduced percentage of alternations: significantly reversed
Human M1R
  concentration without inhibition of [3H]‐NMS binding relative to that required for procognitive efficacy: up to 100 fold
Human M1R; T‐495 concentrations below 30 μmol/L
  inhibition of [3H]‐NMS binding to M1R: did not inhibit
